Measured values: article PMC4788259 (PLoS Neglected Tropical Diseases, 2016)
Values joined by “and” are separate entries in the source; they are usually repeats but may differ in a detail not shown here. Equal values may be shown once. Read-outs that look alike come from different tables or passages of the source.

How the values were obtained:
[1] = set-up: method as in earlier work; settings: PLS, ref MMV; cited from earlier work
[2] = system: E. multilocularis metacestode vesicles; settings: 12 days, alamarBlue vesicle viability assay
[3] = system: human foreskin fibroblasts (HFF); experiment: alamarBlue viability assay on HFF; assay type: cell-based; settings: Fibroblast, 120 h, 5 days
Method: (§1) For testing growth inhibitory effects on confluent host cells, cells were seeded in 96-well plates (10,000 cells per well for HFF and 50,000 cells per well for RH cells), in DMEM containing FBS (10%) and antibiotics (100 U penicillin, 100 μg streptomycin and 0.25 μg amphotericin B per mL medium) and were cultured overnight at 37°C, 5% CO2. Thereafter the drugs (10 μM) were added and diluted in a serial 1:2 dilutions down to 20 nM. The concentration range was further adjusted in subsequent setups. For testing growth inhibitory effects on proliferating cells, cells were seeded at 1,000 (HFF) and 5,000 (RH) cells per well, and were allowed to attach for 5 hours at 37°C before addition of the drugs. After 5 days of culture, cell viability was assessed by alamarBlue assay.

[4] = set-up: method as in earlier work; settings: ref MMV; cited from earlier work
T. gondii = system: T. gondii; set-up: method as in PMID 22970937; settings: cited from earlier work
[5] = system: E. multilocularis metacestode vesicles; experiment: microbe, parasite or virus in culture; settings: Echinococcus multilocularis, 288 h, read-out: mean viability
[6] = set-up: method as in earlier work; settings: MMS, Mouse; ref MMV; cited from earlier work
[7] = set-up: method as in earlier work; settings: MMS, Human; ref MMV; cited from earlier work
[8] = cited from earlier work
[9] = system: E. multilocularis metacestodes; experiment: Transmission electron microscopy of treated metacestodes; assay type: cell-based, Echinococcus multilocularis; settings: 5 days
Method: In vitro-cultured metacestodes were cultured for five days in the presence of 1.6, 0.8, 0.4 or 0.1 μM MMV665807, or in the absence of the drug, and were processed for TEM as previously described. In short, primary fixation was carried out in 2% glutaraldehyde in 0.1 M sodium-cacodylate buffer, pH 7.3 for 1 h, and post-fixation in 2% osmium tetroxide in 0.1 M sodium-cacodylate buffer for 2 h. Samples were then pre-stained in saturated uranyl acetate solution in water for 30 min, washed in water, and were stepwise dehydrated in ethanol (30%, 50%, 70%, 90%, and three times 100%). Subsequently specimens were embedded in epoxy resin and polymerization of the resin was carried out at 60°C for 12 h. Ultrathin sections were cut using an ultramicrotome (Reichert and Jung, Vienna, Austria), and were loaded onto formvar-carbon coated nickel grids (Plano GmbH, Marburg, Germany). Specimens were stained with uranyl acetate and lead citrate, and were viewed on a Phillips EM400 transmission electron microscope operating at 80 kV.

[10] = set-up: method as in earlier work; settings: HMS, Human; ref MMV; cited from earlier work
adult worms = system: adult worms; set-up: method as in PMID 24416463; settings: in vitro; read-out: IC50 against adult worms; cited from earlier work
M. tuberculosis = system: M. tuberculosis; set-up: method as in PMID 23211970; settings: cited from earlier work
[11] = system: Reuber rat hepatoma (RH) cells; experiment: alamarBlue viability assay on RH cells; assay type: cell-based; settings: 120 h, 5 days
Method: as §1

[12] = system: E. multilocularis germinal layer cells; experiment: CellTiter-Glo viability assay on germinal layer cell cultures; assay type: cell-based; settings: Echinococcus multilocularis, 120 h, 5 days, read-out: E.m. GL cells (IC50)
Method: To assess the effects of MMV665807 on the viability of parasite cells, germinal layer cells were extracted according to Spiliotis et al. After overnight aggregate formation, 15 units of cells were distributed to a black 384 well plate (Nunc, Thermo Scientific, Reinach, Switzerland) in 12.5 μL medium. A concentration series (final concentrations of 3, 1, 0.3, 0.1, 0.03, 0.01 μM) of MMV665807, MMV665794 and mefloquine were prepared in medium and added 1:2 to the cells. For mefloquine, the concentration range was adjusted in a subsequent setup up to 100 μM. As negative control, DMSO was added accordingly. After 5 days of culture at 37°C under humid nitrogen atmosphere, 25 μL CellTiter-Glo (Promega, Dübendorf, Switzerland) including 1% TritonX-100 was added. Plates were incubated for 15 minutes on a shaker at room temperature and complete disruption of all cell aggregates was checked for before measurement of luminescence on a 2300 Enspire multilabel reader (Perkin-Elmer). Mean values and standard deviations were calculated and DMSO values set to 100% viability. The IC50 value was calculated in Microsoft Excel 2010 after logit-log transformation and averages as well as standard deviations of four independent setups were calculated.

hERG = system: hERG; set-up: method as in earlier work; settings: ref MMV, cited from earlier work
[13] = system: newly transformed schistosomula; set-up: method as in PMID 24416463; settings: in vitro; read-out: IC50 against newly transformed schistosomula; cited from earlier work
[14] = PO, administered dose 119 μmol/kg, ref MMV

## O=C(Nc1cccc(C(F)(F)F)c1)c1cc(Cl)ccc1O [MMV665807]
[1]
  % Remaining after Incubation (60 min) CD-1 Mouse Plasma: 102.5%
[2]
  lowest concentration that almost completely abolishes viability of the metacestode tissue: 1.6 µM
[3]; confluent cells, read-out: Confluent HFF (IC50)
  IC50: 29.2 ± 0.06 µM
[3]; proliferating cells, read-out: Preconfluent HFF (IC50)
  IC50: 4.8 ± 0.59 µM
[4]
  Kinetic Solubility pH=7.4: 1.12 µg/mL and 3.55 µM
T. gondii
  in vitro activity against T. gondii: moderate in vitro activity
[5]
  viability at 0.1 µM: 59.7%
  viability at 0.2 µM: 65.5%
  viability at 0.4 µM: 69%
  viability at 0.8 µM: 97.9%
  viability at 1.6 µM: 5.29%
  viability at 3.1 µM: 6.06%
  viability at 6.3 µM: 4.71%
  viability at 12.5 µM: 2.84%
  viability at 25 µM: 2.92%
  viability at 50 µM: 2.9%
  viability at 100 µM: 3.06%
[6]
  CL: 190.4 µL/min/mg
  CLh: 80.4 mL/min/kg
  CLint: 754.0 mL/min/kg
  T1/2: 14.6 min
[7]
  CL: 66.8 µL/min/mg
  CLh: 15.9 mL/min/kg
  CLint: 66.1 mL/min/kg
  T1/2: 41.5 min
[8]; [14]
  AUC0-last: 0.264 µM·h
  Cmax: 62.3 nM
  MRT0-last: 314 min
  Tlast: 9.00 h
  Tmax: 380 min
[8]; single dose p.o. application of 50 mg/kg, ref MMV (S3 Table)
  plasma level: 60 nM
[9]; 0.1 μM and 0.4 μM
  ultrastructural alterations (TEM): did not show any major alterations
[9]; 0.8 μM
  ultrastructural alterations (TEM): Clear alterations in the Echinococcus ultrastructure
[9]; 1.6 μM
  ultrastructural alterations (TEM): clear signs of cell death
[10]
  CLint: 107.6 mL/min/kg
  t½: 23.3 min
Adult worms
  IC50: 0.6 to 1.3 µM
M. tuberculosis
  MIC: 3.1 to 6.3 µM
[11]; confluent cells, read-out: Confluent RH (IC50)
  IC50: 20.5 ± 0.13 µM
[11]; proliferating cells, read-out: Preconfluent RH (IC50)
  IC50: 4.3 ± 0.14 µM
[12]
  IC50: 0.6 ± 0.37 µM
hERG; 1uM
  hERG % I (1uM): 18%
hERG; 11uM
  hERG % I (11uM): 40%
hERG
  hERG activity level: Weakly active
[13]
  IC50: 1.8 µM
